Assays:
[1] = test system: CD36^+/+ and CD36^−/− mice; assay: Myocardial oxidative metabolism by μPET with [11C]-acetate; type: in vivo; settings: in words
Method: Experimental model of IHD: Transient left coronary artery ligation in vivo. Mice were subjected to a transient LCAL surgery as described before, with minor modifications [Tarnayski et al., 2004]. Mice were injected i.p. with buprenorphine (0.05 mg/kg) and placed in an induction chamber with inhalation anesthesia comprised of 3% isoflurane mixed with 100% oxygen. Mice were intubated with a blunt ended 20-gauge catheter into the trachea via the mouth and mechanically ventilated at a tidal volume of 7 ml/kg at 130 respirations/min with a MiniVent™ mouse ventilator (model 845, Harvard Apparatus, Saint-Laurent, QC, Canada). Anesthesia was maintained with 1.5-2% isoflurane and the animals were kept warm using electrical heating pads during the surgical procedure. The chest was opened by a horizontal incision through the skin and muscle layers at the third intercostal space exposing the left side of the heart. […] Visual blanching distal to the coronary occlusion confirmed myocardial ischaemia. Lidocaine (6 mg/kg) was administered i.p. just following occlusion and prior to reperfusion. […]
Imaging Data Analysis. For [^11C]-acetate images, dynamic series of 25 frames each were sorted out whereas 27 frames were used for ^18FDG and ^18FTHA imaging, and were reconstructed and analyzed using multicompartmental analysis [Menard et al., 2009] or the Patlak method for FTHA [Patlak and Blasberg, 1985]. […]

Akt = assay: Western blot of left ventricle: phosphorylated Akt to total Akt; type: in vivo, mice
Method: (§1) Experimental model of IHD: Transient left coronary artery ligation in vivo. Mice were subjected to a transient LCAL surgery as described before, with minor modifications [Tarnayski et al., 2004]. Mice were injected i.p. with buprenorphine (0.05 mg/kg) and placed in an induction chamber with inhalation anesthesia comprised of 3% isoflurane mixed with 100% oxygen. Mice were intubated with a blunt ended 20-gauge catheter into the trachea via the mouth and mechanically ventilated at a tidal volume of 7 ml/kg at 130 respirations/min with a MiniVent™ mouse ventilator (model 845, Harvard Apparatus, Saint-Laurent, QC, Canada). Anesthesia was maintained with 1.5-2% isoflurane and the animals were kept warm using electrical heating pads during the surgical procedure. The chest was opened by a horizontal incision through the skin and muscle layers at the third intercostal space exposing the left side of the heart. […] Visual blanching distal to the coronary occlusion confirmed myocardial ischaemia. Lidocaine (6 mg/kg) was administered i.p. just following occlusion and prior to reperfusion. After 30 minutes, the PE10 tubing was removed allowing reperfusion. The lungs were reinflated and the chest wound closed layer by layer before extubation. […] Hearts were immediately frozen at −80° C. unless otherwise stated.
(§2) Western blot analysis. Total ventricular protein lysates were prepared as described previously [Bodart et al., 2002]. Left ventricles were homogenized in PBS containing a protease inhibitor cocktail (Roche Applied Science, Indianapolis, Ind., USA) and 1 mM sodium orthovanadate. Homogenates were incubated for 10 min on ice with an equal volume of lysis buffer (NaCl 300 mM, Tris-HCl 100 mM, 2% Triton X-100, 0.2% SDS, 50 mM NaF, 4 mM EDTA, 1 mM sodium orthovanadate and protein inhibitors, pH=7.5), and centrifuged at 14,000 g for 30 minutes at 4° C. The protein concentration of the su pernatant was determined by the bicinchoninic acid (BCA) protein assay (Pierce Biotechnology, Rockford, Ill., USA). Equal amounts (50 or 100 μg) of protein extracts were separated on 10% SDS-polyacrylamide gels and transferred electrophoretically to polyvinylidene difluoride (PVDF) membranes (Bio-Rad Laboratories, Hercules, Calif., USA) for immunoblotting. […] Antibody binding was detected by enhanced chemiluminescence using an alpha Imager™ (Alpha Innotech Corporation, San Leandro, Calif., USA). Quantification of the digital images obtained was performed using ImageQuant™ 5.2 software (Molecular Dynamics, Sunnyvale, Calif., USA).

AMPK = assay: Western blot of left ventricle: phosphorylated AMPK to total AMPK; type: in vivo, mice
Method: as §1, §2

[2] = 6 hours reperfusion, CD36^+/+ mice, p<0.01
[3] = 6 hours reperfusion, CD36^−/− mice, in words
[4] = 48 hours reperfusion, genotype not printed in the sentence (FIG. 7D), in words

HAIC-2MeDTrp-DLys-Trp-DPhe-Lys-NH2 [EP 80317]
myocardial oxidative metabolism (k2) ([1]; CD36^+/+ mice pre-treated): reduced | myocardial oxidative metabolism (k2) ([1]; CD36^−/− mice): unaffected | increase of P-Akt to total Akt band density ratio (Akt; [2]): 57% | effect on P-Akt/Akt ratio (Akt; [3]): no effect | increase of P-Akt/Akt density ratio (Akt; 48 hours reperfusion, CD36^+/+ mice, p<0.01): 89% | effect on Akt phosphoprotein signal (Akt; [4]): no significant effect | increase of P-AMPK to total AMPK band density ratio (AMPK; [2]): 121% | effect on P-AMPK/AMPK ratio (AMPK; [3]): no effect | P-AMPK/AMPK density ratio (AMPK; 48 hours reperfusion, CD36^+/+ mice, in words): tended to decrease | effect on AMPK phosphoprotein signal (AMPK; [4]): no significant effect
